Test results reported in patent US11826352B2, “Edaravone suspension for oral administration” (MITSUBISHI TANABE PHARMA CORPORATION, priority 2018, dated 2023).

Assays:
Contact angle test = assay type: physicochemical; details: edaravone saturated aqueous solution with 0.1% (w/v) additive on edaravone tablet; 1 μL, after 3.1 seconds
Protocol: Here, “80 degrees or less” means a range of 0-80 degrees. […] Here, the edaravone tablet refers to an edaravone tablet obtained by compression-molding 120 mg of edaravone (D50: 37 D90: 143 μm) in a flat punch having a diameter of 8 mm at a tableting pressure of 800 kg, and measurement of the contact angle refers to a case where the contact angle is measured using a contact angle measuring device (CAX-150 manufactured by Kyowa Interface Science) under the following conditions. • Syringe used: glass, 1 mL • Needle: 23 gauge • Liquid volume: 1 μL • Measurement time: after 3.1 seconds
120 mg of an edaravone drug substance (D50: 37 μm, D90: 143 μm) was compression-molded using a single-punch tableting machine (Compaction Analyzer) (punch: flat punch having a diameter of 8 mm; tableting pressure: 800 kgf), and an edaravone tablet for contact angle measurement was obtained.
Edaravone saturated aqueous solutions in which drug product additives described in the following table that are substances having a function capable of dispersing solid particles in a liquid were dissolved 0.1% (w/v) therein were prepared at a room temperature, and contact angles with respect to the edaravone tablet prepared above were measured using a contact angle measurement device (Kyowa Interface Science, Inc., CAX-150). […]

[1] = Transmission scattering light intensity test; assay type: physicochemical; details: 40 mL 0.1% (w/v) additive solution + 840 mg edaravone particles; for Dispersion State of Edaravone: stirred 30 minutes or more; for Transmission Scattering light Intensity ΔT %: TURBISCAN Tower, 25° C., height 39-40 mm, after 10 minutes
Protocol: Further, here, the transmission scattering light intensity means a value obtained after 10 minutes after starting a measurement of a transmission scattering light intensity, the measurement being performed by filling 20 mL of the above liquid in a cylindrical sample bottle (inner diameter: 25 mm×outer diameter: 27.5 mm×height: 72 mm) and by measuring the transmission scattering light intensity at a height of 39-40 mm of the sample bottle using a TURBISCAN Tower (manufactured Formulaction) (25° C.).
0.1% (w/v) aqueous solutions of drug product additives described in the following table that are substances having a function capable of dispersing solid particles in a liquid were prepared at a room temperature.
40 mL of each of the aqueous solutions of the additives was added to 840 mg of edaravone particles (edaravone powder, D50: 37 μm, D90: 143 μm) and the mixture was stirred using a stirrer for 30 minutes or more, and a dispersed state of the edaravone particles was confirmed.
Further, 20 mL of the dispersion liquid obtained above was filled into a sample bottle (inner diameter: 25 mm×outer diameter: 27.5 mm×height: 72 mm), and measurement of a transmission scattering light intensity ΔT % at a height of 39-40 mm of the sample bottle was started using a TURBISCAN Tower (manufactured by Formulaction) (with a temperature set to 25° C.), and a value obtained after 10 minutes after the start of the measurement was defined as the transmission scattering light intensity ΔT % for each additive. The transmission scattering light intensities ΔT % of the additives and the dispersion state of the edaravone particles in the additive solutions are shown in the following table.

| Compound | Contact Angle (Contact angle test) [degrees] | Dispersion State of Edaravone [1] | Transmission Scattering light Intensity ΔT % [1] [%] |
| --- | --- | --- | --- |
| OC[C@@H](O)[C@@H](O)[C@H](O)[C@@H](O)CO [D-sorbitol] | 83.3 | not dispersed | 0.000 |
| Polysorbate 80 | 53.1 | dispersed | 6.151 |
